Reference: patent publication US20160145267A1, “HETEROARYL SUBSTITUTED PYRAZOLES” (BAYER PHARMA AKTIENGESELLSCHAFT, priority 2013, published 2016)
Read-outs that look alike come from different tables or passages of the source.

Columns and labels:
[1] = target: T1, catalytic domain of human Bub1 (amino acids 704-1085) (Homo sapiens, UniProt O43683); test: Bub1 kinase assay (TR-FRET); type: biochemical
T1 construct: catalytic domain of human Bub1 (amino acids 704-1085); His6 (N); made in house; host or cells: Hi5 insect cells
Description: To this end, 100-fold concentrated compound solutions (in DMSO) were previously prepared by serial dilution (1:3.4) of 2 mM stocks in a clear low volume 384-well source microtiter plate (Greiner Bio-One, Frickenhausen, Germany), from which 50 nL of compounds were transferred into a black low volume test microtiter plate from the same supplier. […] The resulting mixture (5 μL final volume) was incubated at 22° C. during 60 min., and the reaction was stopped by the addition of 5 μL of an aqueous EDTA-solution (50 mM EDTA, in 100 mM HEPES pH 7.5 and 0.2% (w/v) bovine serum albumin) which also contained the TR-FRET detection reagents (0.2 μM streptavidin-XL665 [Cisbio Bioassays, Codolet, France] and 1 nM anti-phoshoSerine antibody [Merck Millipore, cat. #35-001] and 0.4 nM LANCE EU-W1024 labeled anti-mouse IgG antibody [Perkin-Elmer, product no. AD0077, alternatively a Terbium-cryptate-labeled anti-mouse IgG antibody from Cisbio Bioassays can be used]). The stopped reaction mixture was further incubated 1 h at 22° C. in order to allow the formation of complexes between peptides and detection reagents. Subsequently, the amount of product was evaluated by measurement of the resonance energy transfer from the Eu-chelate-antibody complex recognizing the Phosphoserine residue to the streptavidin-XL665 bound to the biotin moiety of the peptide.

[2] = system: HeLa cell line; test: Proliferation assay (HeLa cell line); type: cell-based; details: Homo sapiens, 96 h, read-out: Biological Assay 2: Proliferation assay (HeLa cell line) median IC50
Description: (§1) Cultivated tumor cells (cells were ordered from ATCC, except HeLa-MaTu and HeLa-MaTu-ADR, which were ordered from EPO-GmbH, Berlin) were plated at a density of 1000 to 5000 cells/well, depending on the growth rate of the respective cell line, in a 96-well multititer plate in 200 μL of their respective growth medium supplemented 10% fetal calf serum. After 24 hours, the cells of one plate (zero-point plate) were stained with crystal violet (see below), while the medium of the other plates was replaced by fresh culture medium (200 μL), to which the test substances were added in various concentrations (0 μM, as well as in the range of 0.001-10 μM; the final concentration of the solvent dimethyl sulfoxide was 0.5%). The cells were incubated for 4 days in the presence of test substances. Cell proliferation was determined by staining the cells with crystal violet: the cells were fixed by adding 20 μL/measuring point of an 11% glutaric aldehyde solution for 15 minutes at room temperature. After three washing cycles of the fixed cells with water, the plates were dried at room temperature. The cells were stained by adding 100 μL/measuring point of a 0.1% crystal violet solution (pH 3.0). After three washing cycles of the stained cells with water, the plates were dried at room temperature. The dye was dissolved by adding 100 μl/measuring point of a 10% acetic acid solution. Absorbtion was determined by photometry at a wavelength of 595 nm. The change of cell number, in percent, was calculated by normalization of the measured values to the absorbtion values of the zero-point plate (=0%) and the absorbtion of the untreated (0 μm) cells (=100%). The IC50 values were determined by means of a 4 parameter fit.

[3] = system: HeLa-MaTu-ADR cell line; test: Proliferation assay (HeLa-MaTu-ADR cell line); type: cell-based; details: 96 h, read-out: Biological Assay 2: Proliferation assay (HeLa-MaTu-ADR cell line) median IC50
Description: as §1

[4] = system: NCl-H460 cell line; test: Proliferation assay (NCI-H460 cell line); type: cell-based; details: Homo sapiens, NCI-H460, 96 h, read-out: Biological Assay 2: Proliferation assay (NCl-H460 cell line) median IC50
Description: as §1

[5] = system: DU145 cell line; test: Proliferation assay (DU145 cell line); type: cell-based; details: Homo sapiens, DU-145, 96 h, read-out: Biological Assay 2: Proliferation assay (DU145 cell line) median IC50
Description: as §1

[6] = system: Caco2 cell line; test: Proliferation assay (Caco2 cell line); type: cell-based; details: Homo sapiens, Caco-2, 96 h, read-out: Biological Assay 2: Proliferation assay (Caco2 cell line) median IC50
Description: as §1

[7] = system: B16F10 cell line; test: Proliferation assay (B16F10 cell line); type: cell-based; details: Mus musculus, B16-F10, 96 h, read-out: Biological Assay 2: Proliferation assay (B16F10 cell line) median IC50
Description: as §1

[8] = HeLa-MaTu-ADR, 4 days incubation, crystal violet staining
[9] = NCl-H460, 4 days incubation, crystal violet staining
[10] = DU145, 4 days incubation, crystal violet staining
[11] = Caco2, 4 days incubation, crystal violet staining
[12] = B16F10, 4 days incubation, crystal violet staining
[13] = 10 μM ATP, 1 μM peptide substrate, TR-FRET, read-out: Biological Assay 1: Bub1 kinase assay median IC50
[14] = 4 days incubation, crystal violet staining

T1 sequence (O43683 704-1085): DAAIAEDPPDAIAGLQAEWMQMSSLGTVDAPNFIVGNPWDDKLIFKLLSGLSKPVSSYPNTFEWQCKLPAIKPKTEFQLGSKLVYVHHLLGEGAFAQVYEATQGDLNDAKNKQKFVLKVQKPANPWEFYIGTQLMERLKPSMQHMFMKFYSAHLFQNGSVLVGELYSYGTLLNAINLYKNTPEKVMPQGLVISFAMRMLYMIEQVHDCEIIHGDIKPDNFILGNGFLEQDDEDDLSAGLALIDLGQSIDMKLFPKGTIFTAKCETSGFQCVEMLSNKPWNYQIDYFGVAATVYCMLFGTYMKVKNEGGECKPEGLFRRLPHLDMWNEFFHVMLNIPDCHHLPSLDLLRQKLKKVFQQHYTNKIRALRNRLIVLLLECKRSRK

Compound | IC50 [1] [nM] | IC50 [2] [nM] | IC50 [3, 8] [nM] | IC50 [4, 9] [nM] | IC50 [5, 10] [nM] | IC50 [6, 11] [nM] | IC50 [7, 12] [nM] | IC50 [1, 13] [nM] | IC50 [3] [nM] | IC50 [4] [nM] | IC50 [5] [nM] | IC50 [6] [nM] | IC50 [7] [nM] | IC50 [2, 14] [nM]
CCOc1cc(F)c(Cn2nc(-c3nc(Nc4ccncn4)nc(Nc4ccncn4)n3)c(C)c2C2CC2)c(F)c1 [Example 2-2-9, 6-[5-cyclopropyl-1-(4-ethoxy-2,6-difluorobenzyl)-4-methyl-1H-pyrazol-3-yl]-N,N′-di(pyrimidin-4-yl)-1,3,5-triazine-2,4-diamine] | 1700 | 1700 | 10000 | 9900 | 3200 | 3500 | 8800 | – | – | – | – | – | – | –
CCOc1cc(F)c(Cn2nc(-c3nc(Nc4ccncc4)c(OCCOC)c(Nc4ccncc4)n3)c(C)c2C2CC2)c(F)c1 [Example 2-2-12, 2-[5-cyclopropyl-1-(4-ethoxy-2,6-difluorobenzyl)-4-methyl-1H-pyrazol-3-yl]-5-(2-methoxyethoxy)-N,N′-di(pyridin-4-yl)pyrimidine-4,6-diamine] | – | 970 | – | – | – | – | – | 480 | 730 | 1200 | 1700 | 1100 | 400 | –
CCOc1cc(F)c(Cn2nc(-c3nc(Nc4ccncn4)cc(Nc4ccncn4)n3)c(C)c2C2CC2)c(F)c1 [Example 2-2-3, 2-[5-cyclopropyl-1-(4-ethoxy-2,6-difluorobenzyl)-4-methyl-1H-pyrazol-3-yl]-N,N′-di(pyrimidin-4-yl)pyrimidine-4,6-diamine] | – | 560 | – | – | – | – | – | 20 | 700 | 1600 | 2100 | 2600 | 500 | –
CCOc1cc(F)c(Cn2nc(-c3nc(Nc4ccncc4)c(N4CCOCC4)c(Nc4ccncc4)n3)c(C)c2C2CC2)c(F)c1 [Example 2-2-6, 2-[5-cyclopropyl-1-(4-ethoxy-2,6-difluorobenzyl)-4-methyl-1H-pyrazol-3-yl]-5-(morpholin-4-yl)-N,N′-di(pyridin-4-yl)pyrimidine-4,6-diamine] | 220 | – | 820 | 1100 | 1900 | 2600 | 990 | – | – | – | – | – | – | 7000
CCOc1cc(F)c(Cn2nc(-c3nc(N)c(OC)c(Nc4ccncn4)n3)c(C)c2C2CC2)c(F)c1 [Example 2-1-5, 2-[5-cyclopropyl-1-(4-ethoxy-2,6-difluorobenzyl)-4-methyl-1H-pyrazol-3-yl]-5-methoxy-N-(pyrimidin-4-yl)pyrimidine-4,6-diamine] | – | 5100 | – | – | – | – | – | 5.3 | 3500 | 7400 | 6900 | 1900 | 1800 | –
CCOc1cc(F)c(Cn2nc(-c3nc(N)cc(Nc4ccnc(OC)c4)n3)c(C)c2C2CC2)c(F)c1 [Example 2-1-2, 2-[5-cyclopropyl-1-(4-ethoxy-2,6-difluorobenzyl)-4-methyl-1H-pyrazol-3-yl]-N-(2-methoxypyridin-4-yl)pyrimidine-4,6-diamine] | – | 7500 | – | – | – | – | – | 260 | – | – | – | – | – | –
CCNC(=O)Nc1cc(Nc2ccncn2)nc(-c2nn(Cc3c(F)cc(OCC)cc3F)c(C3CC3)c2C)n1 [Example 2-1-11, 1-{2-[5-cyclopropyl-1-(4-ethoxy-2,6-difluorobenzyl)-4-methyl-1H-pyrazol-3-yl]-6-(pyrimidin-4-ylamino)pyrimidin-4-yl}-3-ethylurea] | – | 4900 | – | – | – | – | – | 130 | – | – | – | – | – | –
CCNC(=O)Nc1cc(Nc2ccncc2)nc(-c2nn(Cc3c(F)cc(OCC)cc3F)c(C3CC3)c2C)n1 [Example 2-1-10, 1-{2-[5-cyclopropyl-1-(4-ethoxy-2,6-difluorobenzyl)-4-methyl-1H-pyrazol-3-yl]-6-(pyridin-4-ylamino)pyrimidin-4-yl}-3-ethylurea] | – | 1700 | – | – | – | – | – | 48 | 1100 | 1500 | 2800 | 1400 | 1200 | –
CCOc1cc(F)c(Cn2nc(-c3nc(N)nc(Nc4ccncc4)n3)c(C)c2C2CC2)c(F)c1 [Example 2-1-8, 6-[5-cyclopropyl-1-(4-ethoxy-2,6-difluorobenzyl)-4-methyl-1H-pyrazol-3-yl]-N-(pyridin-4-yl)-1,3,5-triazine-2,4-diamine] | 7.1 | – | – | – | – | – | – | – | – | – | – | – | – | 3800
CCOc1cc(F)c(Cn2nc(-c3nc(NC(=O)NC4CCCCC4)c(OC)c(Nc4ccncn4)n3)c(C)c2C2CC2)c(F)c1 [Example 2-1-17, 1-cyclohexyl-3-{2-[5-cyclopropyl-1-(4-ethoxy-2,6-difluorobenzyl)-4-methyl-1H-pyrazol-3-yl]-5-methoxy-6-(pyrimidin-4-ylamino)pyrimidin-4-yl}urea] | – | 5500 | – | – | – | – | – | 1400 | – | – | – | – | – | –
